# From US7662941B2, “Embryonic stem cell self maintenance and renewal reporter” (The Trustees of the University of Princeton - Princeton …, priority 2005, dated 2010)
# Where two headings read alike, the source gives them in different places.
# B1: RNA shRNA against GFP: RNA shRNA against GFP, SEQ ID NO:31 (nucleic acid)
# chain: AGCCACAACGUCUAUAUCAUGGCCGACAAGUUGGCUUGUCGGCCAUGAUAUAGACGUUGUGGCUGU
# modifications: siRNA; RNA, backbone not given here; hairpin shRNA transfected as RNA
# B2: RNA shRNA against Pou5f1: RNA shRNA against Pou5f1, SEQ ID NO:32 (nucleic acid)
# chain: GCAGCUCAGCCUUAAGAACAUGUGUAAGCUUUGGAGCUUACACAUGUUCUUAAGGCUGAGCUGCAA
# modifications: siRNA; RNA, backbone not given here; hairpin shRNA transfected as RNA
# Tests used:
# Format in all cases: cell-based, mouse
# [1] = system: Nanog/GFP expression in NeFREC(g); assay: Chemical genomics screen in NeFREC(g), ES medium without LIF, Nanog/GFP by flow cytometry; details: for Effect on RA-induced Nanog/GFP downregulation: agent plus RA compared to RA-induced differentiation condition; for Effect on Nanog/GFP expression / ES cell differentiation induced by omission of LIF: compound alone in ES medium without LIF, one and two days
# Method: To validate the use of NeFRECs as an easy reporter cell in chemical genomics proof-of-principle studies were performed with several compounds that are known to show effects on ES cell self-renewal and differentiation or were previously tested in early embryonic development and cancer therapy. The compounds included in the experiment were RA (Sigma, Cat# R2625), Trichostatin A (TSA, Sigma, Cat# T8552, a histone deacetylase (HDAC) inhibitor), Ly294002, (CALBIOCHEM, Cat# 440202, a phosphatidylinositol 3-kinase (PI3K) inhibitor), Rapamycin (Rapa, Sigma, Cat# R0395, an inhibitor of mTOR), PD98059 (CALBIOCHEM, Cat# 513000, a MAP kinase (MAPK) inhibitor), 5-aza-2′-deoxycytidine (AZA, Sigma, Cat# A3656, an inhibitor of DNA methytransferases).
# (§1) For the chemical genomics screen 2.5×10^4 cells in 0.5 ml ES medium were plated per 24-well the day before treatment. Medium without LIF supplemented with the different compounds at indicated concentrations was added 24 hrs post-plating. Medium was changed daily. Nanog/GFP levels for each sample were measured by flow cytometry one and two days post drug treatment. Average percentages of Nanog/GFP^+ cells were calculated from duplicate samples (FIG. 10A).
# ES cells = system: ES cells
# NeFREC(g) = assay: Cell morphology of NeFREC(g) after compound treatment; details: day 2 of treatment
# Method: Microscopy. Microscopy was performed on a Nikon Eclipse TE2000-U microscope with appropriate filter sets, CoolSnapES (black and white/fluorescence) and DXM1200F (color) cameras, and MetaView (black and white/fluorescence) and ACT (color) image-processing software.
# as §1
# Addition of RA, LY294002 or PD98059 to the cultures has different effects on ES cell colony morphology.
# [2] = system: Nanog/GFP expression in NeFREC(g); assay: Nanog/GFP expression of NeFREC(g) clones in response to RA, flow cytometry
# Method: ES cell growth and differentiation. ES cells were maintained on gelatin-coated tissue culture plates in Dulbecco's Modified Eagels Medium (DMEM; Invitrogen/Gibco) supplemented with 15% fetal calf serum (FCS), 1 mM sodium pyruvate, 2 mM L-glutamine (Invitrogen/Gibco), 0.1 mM non-essential amino acids (Invitrogen/Gibco), 100 U/ml penicillin, 100 μg/ml streptomycin, 1×10^−4 M 2-Mercaptoethanol (2-ME) and 1000 U/ml leukemia inhibitory factor (LIF; ESGROW, Chemicon), henceforth referred to as ES medium. Medium was changed every day and cells were split every second day.
# One day prior to differentiation cells were plated on gelatinized culture dishes in the aforementioned medium. Differentiation was induced either by removal of LIF or removal of LIF and addition of retinoic acid (RA, Sigma) if grown in ES medium or either LIF or Bmp4 or both if grown in SF-ES medium.
# Cell surface staining, FACS analysis and Cell Sorting. Standard conditions were used to stain the cells. Cell suspensions were analyzed on a FACS Sort (Becton Dickinson). Cell sorting was performed using a FacsVantage with DiVa Software (Becton Dickinson).
# NeFREC(g) clones. To determine the dynamics of Nanog/GFP expression of NeFREC(g) clones in response to RA, 4 individual clones (numbers 4, 9, 20 and 23) were analyzed in detail (FIG. 6a upper panel). 2.5×10^4 cells were plated in 0.5 ml ES medium the day before RA treatment. ES medium without LIF and supplemented with 10 μM RA (10 mM stock dissolved in 100% ethanol) was added to cells 24 hours post-plating (indicated as day 0). Nanog/GFP levels in treated cells were measured daily, day 0 to day 3, by flow cytometry. […] By day 3, less than 5% cells remain Nanog/GFP+ in response to RA treatment. […] Eef1b gene expression was used as loading control (5′-[…]-3′ (SEQ ID NO:17) and 5′-[…]-3′ (SEQ ID NO:18)).
# To further determine the dynamics of Nanog/GFP expression of NeFREC(g), a RA dosage response experiment, ranging from 0.2 to 10 μM RA, was performed (FIG. 6B). An RA dosage of 0.2 μM is sufficient to induces a rapid and significant downregulation of Nanog/GFP expression in NeFREC(g). Omitting LIF from the ES medium also induces loss of Nanog/GFP expression in these cells at a slower rate compared to RA treatment. Forty percent of the cells still remain Nanog/GFP^+ by day 3. A RA pulse experiment was performed to determine the time required to initiate Nanog/GFP downregulation (i.e. differentiation) in response to 1 μM of RA (FIG. 6C). 2.5×10^4 cells were plated initially in 0.5 ml media per well in a 24-well plate the day before treatment. Cells were pulsed with 1 μM RA in ES medium without LIF for the indicated time periods and then changed to fresh ES medium. Nanog/GFP expression was measured after one day and two days of RA treatment.
# [3] = system: Nanog/GFP expression in NeFREC(g); assay: Combinatorial RA and TSA treatment of NeFREC(g), Nanog/GFP by flow cytometry
# Method: In brief, 2.5×10^4 cells were plated in 0.5 ml ES medium. The HDAC inhibitor TSA was added at various concentrations 24 hours post-plating. One day after TSA treatment, medium was changed to ES medium without LIF plus 1.0 μM RA (indicated as day 0). Medium was changed and Nanog/GFP expression monitored by flow cytometry on a daily basis. […] 75 nM TSA rescued Nanog/GFP levels by more than 50% by day 2.
# [4] = system: Nanog/GFP expression in NeFREC(g); assay: Transient RNA shRNA transfection of NeFREC(g), Nanog/GFP by flow cytometry; details: for Nanog/GFP expression (NeFREC(g) bearing Nanog/GFP): by three days, from 90.9%
# Method: (§2) RNA shRNA Transfection. For transfection of RNA shRNA, cells were harvested, washed with DMEM and resuspended at 2×10^5/ml in medium without penicillin and streptomycin. 250 μl of medium without penicillin and streptomycin was added per gelatin pre-coated well of a 24-well culture plate. In order to prepare the RNA shRNA transfection mixture per well, 10-20 μl of RNA shRNA [1 pmole/μl] was mixed with OptiMEM (Invitrogen/Gibco) in a final volume of 50 μl. In a separate tube, 1 μl Lipofectamine2000 (Invitrogen) was added to 49 μl of OptiMEM per sample. The RNA shRNA/OptiMEM and Lipofectamine/OptiMEM solutions were combined, mixed, incubated for 20 min at room temperature and added to the well. Then, 250 μl of cell solution, i.e., 5×10^4 cells/well, were added and the 24-well plate incubated in a humidified chamber in 5% CO2/air mixture at 37° C. Twenty-four hours after transfection, medium was replaced with appropriate medium with penicillin and streptomycin.
# RNA shRNA against GFP (5′-[…] UAGACGUUGUGGCUGU-3′; SEQ ID NO:31) was transfected into NeFREC(g) as described in Example 1. Ten pmole of RNA shRNA against GFP reduced Nanog/GFP reporter expression in NeFREC(g) from 85.8% down to 18% 72 hours post-transfection (FIG. 11A). The reduction in Nanog/GFP fluorescence is RNA shRNA concentration-dependent.
# The transcription factor Pou5f1 is required for ES cell maintenance and when reduced by more than 50% of wild-type levels results in differentiation towards trophectodermal cells (Niwa et al., 2000 Nat. Genet. 24:372-376). Therefore, 10 pmole of RNA shRNA against Pou5f1 (5′-[…] UAAGGCUGAGCUGCAA-3′; SEQ ID NO:32) was transfected into NeFREC(g).
# [5] = system: Nanog/GFP expression in NeFREC(g)-SF; assay: Transient RNA shRNA transfection of NeFREC(g)-SF, Nanog/GFP by flow cytometry; details: NeFREC(g)-SF in SF-ES medium, by day 2; from 94.8%
# Method: Alternatively, ES cells were maintained on gelatin-coated tissue culture plates in a 1:1 mixture of Neurobasal with N2-supplement (Invitrogen/Gibco) and DMEM/F12 with B27 (Invitrogen/Gibco) supplemented with 10% fraction V bovine serum albumin (BSA; Sigma) and 100 U/ml penicillin, 100 μg/ml streptomycin, 1×10^−4 M 2-ME), 1000 U/ml LIF and 10 ng/ml bone morphogenic protein (Bmp) 4 (R&D Systems), henceforth referred to as SF-ES medium. Medium was changed every day and cells split every second day.
# as §2, with “Twenty-four hours after transfection, medium was replaced with appropriate medium with penicillin and streptomycin.” left out
molecule,measurement,setting,value
"Nc1ncn([C@H]2C[C@H](O)[C@@H](CO)O2)c(=O)n1 [AZA, 5-aza-2′-deoxycytidine]",Effect on RA-induced Nanog/GFP downregulation,[1],delay RA-induced Nanog/GFP downregulation
same,Effect on Nanog/GFP expression / ES cell differentiation induced by omission of LIF,[1],blocked or delayed ES cell differentiation
same,Cell death as indicated by floating cells in culture,ES cells,can cause cell death at too high concentrations
COc1cccc(-c2cc(=O)c3ccccc3o2)c1N [PD98059],Effect on RA-induced Nanog/GFP downregulation,[1],delay RA-induced Nanog/GFP downregulation
same,Effect on Nanog/GFP expression / ES cell differentiation induced by omission of LIF,[1],blocked or delayed ES cell differentiation
same,ES cell colony morphology,NeFREC(g),look more like NeFREC(g) cultured in ES medium alone
"CC1=C(/C=C/C(C)=C/C=C/C(C)=C/C(=O)O)C(C)(C)CCC1 [RA, retinoic acid]",cells remaining Nanog/GFP+,"[2]; 10 μM RA, ES medium without LIF, by day 3",less than 5%
same,GFP levels after RA pulse,"[2]; 24-hour treatment with 1 μM RA in ES medium without LIF, then fresh ES medium, from more than 90%",45%
same,NeFREC(g)s in which the differentiated state is irreversibly fixed,"[2]; after 24-hour differentiation pulse, 1 μM RA",about 50%
same,RA dosage sufficient to induce rapid and significant downregulation of Nanog/GFP expression,[2]; dosage response 0.2 to 10 μM RA,0.2 µM
"CC(/C=C/C(=O)NO)=C\[C@@H](C)C(=O)c1ccc(N(C)C)cc1 [TSA, Trichostatin A]",Effect on RA-induced Nanog/GFP downregulation,[1],delay RA-induced Nanog/GFP downregulation
same,Effect on Nanog/GFP expression / ES cell differentiation induced by omission of LIF,[1],blocked or delayed ES cell differentiation
same,Rescue of Nanog/GFP levels,"[3]; 75 nM TSA, then 1.0 μM RA, by day 2",more than 50%
same,TSA concentrations at which RA-induced downregulation of Nanog/GFP is markedly reduced,"[3]; TSA 24 h, then ES medium without LIF plus 1.0 μM RA",higher than 75 nM
same,Concentration sufficient to kill all ES cells,ES cells; by day 3 of culture,300 nM
same,Cell death as indicated by floating cells in culture,ES cells; too high concentrations,can cause cell death at too high concentrations
B1,Concentration dependence of reduction in Nanog/GFP fluorescence,[4]; 0 to 10 pmole RNA shRNA,concentration-dependent
same,Nanog/GFP reporter expression,"[4]; 10 pmole RNA shRNA, 72 hours post-transfection, from 85.8%",18%
same,Nanog/GFP expression (NeFREC(g) bearing Nanog/GFP),[4]; 10 pmole RNA shRNA,21.2%
same,Nanog/GFP levels,[5],14.1%
B2,Nanog/GFP expression (NeFREC(g) bearing Nanog/GFP),[4]; 10 pmole RNA shRNA,73.1%
same,Nanog/GFP levels,[5],68.5%
